The target of data set [1] is T1, Aryl hydrocarbon receptor (Mus musculus, UniProt P30561).
T1 sequence (P30561 whole entry): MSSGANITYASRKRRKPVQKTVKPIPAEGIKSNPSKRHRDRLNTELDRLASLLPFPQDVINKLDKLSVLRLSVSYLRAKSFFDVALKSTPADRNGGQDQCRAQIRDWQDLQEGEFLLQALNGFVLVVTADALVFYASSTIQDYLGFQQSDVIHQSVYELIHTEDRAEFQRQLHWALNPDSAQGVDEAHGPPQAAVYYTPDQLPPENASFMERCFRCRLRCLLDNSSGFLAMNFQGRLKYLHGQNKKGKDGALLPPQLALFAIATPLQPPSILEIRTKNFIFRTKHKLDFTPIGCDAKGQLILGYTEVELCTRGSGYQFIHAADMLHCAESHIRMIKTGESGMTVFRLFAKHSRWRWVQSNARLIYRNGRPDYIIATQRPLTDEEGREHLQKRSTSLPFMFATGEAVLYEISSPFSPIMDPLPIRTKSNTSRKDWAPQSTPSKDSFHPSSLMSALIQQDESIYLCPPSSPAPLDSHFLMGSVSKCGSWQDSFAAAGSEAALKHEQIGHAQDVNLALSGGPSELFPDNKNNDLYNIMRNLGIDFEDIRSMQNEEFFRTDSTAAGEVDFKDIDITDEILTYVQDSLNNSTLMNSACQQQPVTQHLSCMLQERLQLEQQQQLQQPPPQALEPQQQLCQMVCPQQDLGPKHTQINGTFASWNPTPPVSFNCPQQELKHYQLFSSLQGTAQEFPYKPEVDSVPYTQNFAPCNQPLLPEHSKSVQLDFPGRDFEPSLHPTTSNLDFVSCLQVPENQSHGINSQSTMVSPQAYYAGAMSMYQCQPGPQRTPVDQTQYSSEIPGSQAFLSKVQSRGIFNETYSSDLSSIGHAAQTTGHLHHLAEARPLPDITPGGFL
As to the kind of experiment: Activation of AhR transcription in C57BL/6 mouse naive T cells assessed as increase in CYP1A1 mRNA expression at 1 to 3 uM measured after 72 hrs by qRT-PCR analysis. The format is cell-based. The note with it: t cell, dose 1-3 µM.

In data set [2] the test system is EL4. Briefly: Cytotoxicity against mouse EL4 cells assessed as inhibition of cell proliferation incubated for 72 hrs by MTT assay. Particulars: for IC50: EL4, 72 h. The format is functional, cell-based.
The target in data set [3] is T1, Aryl hydrocarbon receptor. As to the kind of experiment: Activation of AhR transcription in C57BL/6 mouse naive T cells assessed as increase in CYP1A1 mRNA expression at 1 uM by qRT-PCR analysis. The data set is classed as cell-based. Particulars: t cell.
For data set [4], the target named is T1, Aryl hydrocarbon receptor. Briefly: Activation of AhR transcription in C57BL/6 mouse naive T cells assessed as increase in UGT1A1 mRNA expression at 1 to 3 uM by qRT-PCR analysis. The data set is classed as cell-based. The note with it: t cell, dose 1-3 µM. A general note: Real-time PCR tracks product formation cycle by cycle.
For data set [5], the target named is T1, Aryl hydrocarbon receptor. Briefly: Activation of AhR transcription in C57BL/6 mouse naive T cells assessed as increase in CYP1B1 mRNA expression at 1 to 3 uM by qRT-PCR analysis. The format is cell-based. Particulars: t cell, dose 1-3 µM.
Data set [6] addresses T1, Aryl hydrocarbon receptor. Briefly: Activation of AhR transcription in C57BL/6 mouse naive T cells assessed as increase in CYP1A1 mRNA expression at 1 to 3 uM by qRT-PCR analysis. The note with it: t cell, dose 1-3 µM. The format is cell-based.
Data set [7] has as its target T1, Aryl hydrocarbon receptor. Briefly: Activation of AhR transcription in C57BL/6 mouse naive T cells assessed as increase in AhRR mRNA expression at 1 to 3 uM by qRT-PCR analysis. The format is cell-based. The note with it: t cell, dose 1-3 µM.
Data set [8] addresses T1, Aryl hydrocarbon receptor. As to the kind of experiment: Activation of AhR transcription in C57BL/6 mouse naive T cells assessed as increase in CYP1A1 mRNA expression at 3 uM measured after 72 hrs by qRT-PCR analysis relative to control. The data set is classed as cell-based. Particulars: t cell.

Activity calls are given as the source filed them. No cut-off for these calls is given here.

Activity and IC50 data for ten molecules are collected here from ChEMBL document CHEMBL5338769, “Discovery of Norisoboldine Analogue III11 as a Novel and Potent Aryl Hydrocarbon Receptor Agonist for the Treatment of Ulcerative Colitis” (J Med Chem, 2023).

Take `O=Cc1cc(O)ccc1Br`: the Activity entry in data set [1] is “Not Active”.

Regarding `Oc1ccc2c(c1)CC1NCCc3cccc-2c31` (stereo unspecified), in data set [2], the result was inactive.

In the case of `COc1ccc2c(c1)CCN(C(=O)OCc1ccccc1)C2Cc1cc(OCc2ccccc2)ccc1Br` (stereo unspecified), the Activity result in data set [1] is recorded as “Not Active”.

Consider `COc1cccc(CCNC(=O)OCc2ccccc2)c1`, for which the Activity result in data set [1] is on record as “Not Active”.

On to `CO/C=C/c1cc(OCc2ccccc2)ccc1Br`, for which, in data set [1], the Activity result is listed as “Not Active”.

On to `COc1cccc(CCN)c1`, for which the Activity entry in data set [1] is on record as “Not Active”.

Consider `COc1cc2c(cc1O)CC1c3c(cc(OC)c(O)c3-2)CCN1C(=O)OC(C)(C)C` (stereo unspecified), for which the result in data set [3] was Active. In data set [2], the IC50 stood at 37 µM.

Consider `COc1cc2c3c(c1OC)-c1cc(O)ccc1CC3NCC2` (stereo unspecified), for which the Activity result in data set [4], in data set [5], in data set [6] and in data set [7] was “Not Active” each time. For the same molecule, in data set [2], the IC50 was 25.9 µM.

On to `COc1ccc2c(c1)CC1NCCc3cc(OC)c(OC)c-2c31` (stereo unspecified), for which, in data set [8], the Activity is recorded as 152.7%. Also, the IC50 in data set [2] came out at 10.8 µM.

With `O=Cc1cc(OCc2ccccc2)ccc1Br`, the Activity entry in data set [1] is “Not Active”.

For orientation: IC50 means the midpoint of a concentration-inhibition curve.
